In article PMC11233931, “Remodeling tumor‐associated macrophage for anti‐cancer effects by rational design of irreversible inhibition of mitogen‐activated protein kinase‐activated protein kinase 2” (MedComm, 2024):

Tests used:
VEGF mRNA in THP-1 cells = test: RT-PCR of VEGF in IL-4/IL-13 stimulated THP-1 cells; format: cell-based, human; settings: IL-4/IL-13, 12 h
Text: (§1) Following this line of investigation, we employed siRNA for the transient knockdown of MK2 in THP‐1 monocyte‐ differentiated macrophages. […] M2 macrophages play a pivotal role in promoting tumor angiogenesis through the secretion of critical factors like VEGF, which facilitate tumor neovascularization.[17] […] These findings further validate the significance of MK2 in the M2 polarization of macrophages and illustrate how compound 11, by targeting MK2, suppresses the pro‐tumorigenic phenotype of macrophages.
(§2) Total RNA was extracted from cultured cells using the EZ‐press RNA Purification Kit (EZBioscience). Complementary DNA was synthesized using the ABScript III RT Master Mix for qPCR with gDNA remover (ABclonal Technology) and was quantified with primers listed in Table S5. The relative mRNA expression levels were quantified through qPCR using the SYBR green gene expression assay (ABclonal Technology).
(§3) Figure S3 Inhibition of pro-tumorigenic M2-like polarization in macrophages by compound 11. (A) Illustrates the treatment effects on various macrophage cells using Western blot analysis post IL-4/IL-13 exposure (30 minutes or the specified time period). (B) Examines CD206 expression in RAW264.7 cells via flow cytometry post 48hours treatment of compound 11 and IL-4/IL-13. […] IL-4/IL-13 (20 ng/mL) served as the stimulation control, while untreated cells were the baseline control. […]

MK2 [1] = molecular target: T1, MK2 (Homo sapiens, UniProt P49137); test: Kinase kinetic analysis of irreversible inhibition (Mobility Shift Assay, preincubation then 100-fold dilution); format: biochemical; settings: preincubation at 100 times the IC50, monitored continuously
T1 sequence (P49137 whole entry): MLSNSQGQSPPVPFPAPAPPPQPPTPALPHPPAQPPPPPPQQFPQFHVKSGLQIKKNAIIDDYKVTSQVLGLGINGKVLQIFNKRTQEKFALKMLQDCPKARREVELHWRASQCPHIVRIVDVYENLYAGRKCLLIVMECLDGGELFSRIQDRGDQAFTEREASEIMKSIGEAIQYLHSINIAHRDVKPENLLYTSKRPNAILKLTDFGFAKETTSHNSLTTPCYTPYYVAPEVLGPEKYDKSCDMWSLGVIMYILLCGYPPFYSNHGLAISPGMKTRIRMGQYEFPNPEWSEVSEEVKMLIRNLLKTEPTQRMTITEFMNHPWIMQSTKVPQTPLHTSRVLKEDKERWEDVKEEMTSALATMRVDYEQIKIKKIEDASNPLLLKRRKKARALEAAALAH
Text: To assess its role as an irreversible MK2 kinase inhibitor, we conducted a kinetic study on compound 11. The well‐known reversible ATP‐competitive MK2 inhibitor, PF‐3644022, served as a negative control. […] The kinase‐inhibitor mixture was subsequently diluted by a factor of 100 with a reaction buffer that included both substrate peptide and ATP. Under these circumstances, the activity of MK2 kinase was continuously monitored by assessing the phosphorylated substrate percentage. […] The enzyme activity curve almost overlapped with the curve of background group, which included only the substrate peptide without inhibitors and MK2 kinase.
In the kinase kinetic analysis to elucidate the irreversible inhibition of MK2 by compound 11, a Mobility Shift Assay was conducted. […] The EZ Reader (Caliper Life Sciences, MA) was then used to assess the kinase activity of the mixture, which was monitored continuously for 1 hour.

MK2 [2] = molecular target: T1, MK2; test: MK2 kinase inhibition assay (ADP-Glo); format: biochemical; settings: mean ± SD of two independent tests
Method: (§4) To assess the impact of various compounds on MK2 kinase activity, we utilized the ADP‐Glo Assay Kit (Promega) following the manufacturer's instructions. Luminescence measurements were taken using a SpectraMax Paradigm reader. The inhibition percentage was calculated using the following formula: ((specific signalDMSO control − specific signal inhibitor)/(specific signalDMSO control)) × 100%. The IC50 values were determined employing dose–response curve fitting via Prism (Graph Pad).

p70S6Kb = molecular target: T2, p70S6Kb (Homo sapiens, UniProt Q9UBS0); test: Eurofins kinase selectivity profile, p70S6Kb; format: biochemical
T2 construct: purchased Eurofins (Celle Lévescault)
T2 sequence (Q9UBS0 whole entry): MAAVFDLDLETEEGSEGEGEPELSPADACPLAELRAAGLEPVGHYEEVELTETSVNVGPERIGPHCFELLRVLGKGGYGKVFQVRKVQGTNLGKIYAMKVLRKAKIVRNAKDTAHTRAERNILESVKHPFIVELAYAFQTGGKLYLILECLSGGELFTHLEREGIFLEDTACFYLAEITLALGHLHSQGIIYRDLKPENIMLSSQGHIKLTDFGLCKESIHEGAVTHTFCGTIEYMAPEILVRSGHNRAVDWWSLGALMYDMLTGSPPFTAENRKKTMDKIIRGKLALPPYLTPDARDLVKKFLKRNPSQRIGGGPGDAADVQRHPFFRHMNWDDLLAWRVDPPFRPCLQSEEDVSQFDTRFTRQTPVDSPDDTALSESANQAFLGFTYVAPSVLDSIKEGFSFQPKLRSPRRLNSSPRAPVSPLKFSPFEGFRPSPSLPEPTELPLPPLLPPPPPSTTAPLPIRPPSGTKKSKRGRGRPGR
Method: Subsequently, to ascertain whether the high potency of compound 11 was specific for MK2, an additional 380 human recombinant protein kinases were screened.
as §4, with “Pad). Additionally, Eurofins company (Celle Lévescault) conducted the analysis on compound 11’s inhibitory activity against 380 other human recombinant kinases at various concentrations.” for “Pad).”

[3] = tested on: IL-6 and TNF-α secretion by RAW264.7 cells; test: Cytokine production by ELISA in LPS-stimulated RAW264.7; format: cell-based, mouse; settings: LPS-stimulated RAW264.7, 24 h
Method: FIGURE 4 Targeting cellular MK2 signaling with irreversible inhibition by compound 11. (A and B) RT‐PCR analysis of IL‐1β, TNF‐α, and IL‐6 expression in Lipopolysaccharides (LPS)‐stimulated THP‐1 (A) and RAW264.7 (B) Cells, with pre‐treatment of compound 11 for 3 h followed by LPS (3 h) stimulation. (C) The inhibitory effects of compound 11 on TNF‐α and IL‐6 production in LPS‐stimulated RAW264.7 macrophages for 24 h, measured by ELISA. (D and E) Compound 11, alongside CC‐99677 and PF‐3644022, suppressed MK2 pathway activation, validated through western blot analysis post‐LPS stimulation. Cells were preincubated with the specified compounds for 1 h prior to LPS stimulation (100 ng/mL, 30 min). (F) Distinguishes the mode of action between compound 11 and CC‐99677. The complex structure of a small molecule and MK2 (3R2Y) with the same parent nucleus as compound 11 is shown in cyans, and the complex structure of a small molecule and MK2 (3FYJ) with the same parent nucleus as CC‐99677 is shown in orange. (G–I) The effect of indicated inhibitor on Hsp27 phosphorylation following inhibitor washout. […]
Following collection and centrifugation of the cell culture media, supernatants were harvested and the levels of cytokine secretion were evaluated using specific ELISA kits (absin), following the manufacturer's protocol.

[4] = tested on: VEGF mRNA in bone marrow-derived macrophages (BMDMs); test: RT-PCR of VEGF in IL-4/IL-13 stimulated BMDMs; format: cell-based, mouse; settings: IL-4/IL-13, 12 h
Text: as §1, §2, §3

For C=CC(=O)Nc1cc(-c2cc(-c3cc4c([nH]3)CCNC4=O)ccn2)ccc1OC(F)(F)F [compound 11], the “effect on relative mRNA level of VEGF” value (VEGF mRNA in THP-1 cells) was “inhibited”, the “MK2 kinase activity after 30 min preincubation with inhibitor and 100-fold dilution” value (MK2 [1]) was “sustained and potent inhibition of kinase activity” and the IC50 (MK2 [2]) was 2.3 nM. The IC50 (p70S6Kb) was > 1000 nM, the inhibition at 0.01 µM (p70S6Kb; p70S6K(h), 10 nM, read-out: Inhibition rate) was -9% and the inhibition at 0.1 µM (p70S6Kb; p70S6K(h), 100 nM, read-out: Inhibition rate) was -16%. For the same molecule, the inhibition at 1 µM (p70S6Kb; p70S6K(h), 1000 nM, read-out: Inhibition rate) was -6%, the “effect on secretion level of IL-6 and TNF-α” value [3] was “similarly reduced” and the “effect on relative mRNA level of VEGF” value [4] was “inhibited”.
